Two compounds from patent US20240216344A1, “THIAZOLIDINEDIONE ANALOGS FOR THE TREATMENT OF NAFLD AND METABOLIC DISEASES” (Cirius Therapeutics, Inc., priority 2019, published 2024) can be followed below.

SMILES strings stand for the structures.

One series concerns the target T1, MPC (Homo sapiens, UniProt O95563+Q9Y5U8).
T1 sequence (Q9Y5U8 1-109): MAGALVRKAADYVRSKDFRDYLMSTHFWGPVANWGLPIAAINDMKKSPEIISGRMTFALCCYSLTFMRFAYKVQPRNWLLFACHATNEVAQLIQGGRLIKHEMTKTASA
T1 sequence (O95563 1-127): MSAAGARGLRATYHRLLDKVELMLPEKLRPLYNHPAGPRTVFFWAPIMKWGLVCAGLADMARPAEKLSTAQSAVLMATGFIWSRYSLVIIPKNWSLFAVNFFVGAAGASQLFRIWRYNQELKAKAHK
As to the kind of experiment: Relative binding affinity for the MPC (FIG. 8).

For series [1], the system named is diet-induced obese (60% HF diet) LS-MPC2−/− and WT (fl/fl) mice. Nature of the series: Single gavage dose in diet-induced obese WT and LS-MPC2−/− mice: GTT, plasma insulin, plasma ALT, liver qPCR. The series is classed as in vivo. The conditions noted are these: for glucose tolerance (GTT): 20 h after a single dose of 30 mg/kg. Here is the method:
8 week old WT and LS-MPC2−/− mice were fed a diet of 60% fat (Research Diets D12492) for 20 weeks to induce obesity and insulin resistance. Intraperitoneal glucose tolerance tests (GTT) were performed after a 4 h fast by injection of 1 g/kg D-glucose in saline i.p. to assess glucose tolerance. 3 days after the initial GTT, mice were randomized to receive a single gavage of either vehicle (1% CMC, 0.01% Tween-80) or 30 mg/kg MSDC-0602K. Plasma insulin was measured by Singulex assay and plasma ALT levels were measured by commercially-available kits (Teco Diagnostics). qPCR was performed by isolation of total RNA with RNA-Bee and reverse transcription with a high-capacity cDNA synthesis kit (Invitrogen). qPCR was performed on an Applied Biosystems real-time thermocycler.
WT (fl/fl) and LS-MPC2−/− mice were put on 60% HF diet and became equally obese. […] (FIGS. 1A-1C).
In general terms: In qPCR the cycle at which signal appears reflects the starting amount.

Series [2] deals with mouse model of NASH (HTF-C diet). Nature of the series: NASH (HTF-C) diet mice: serum small RNA sequencing. The series is classed as in vivo. Particulars: HTF-C diet containing 331 ppm. Here is the method:
To begin evaluating the exosome cargo of MSDC-0602K-treated mice, WT mice were fed with either a low fat (LF) control diet (Research Diets D09100304) or high trans-fat, fructose, cholesterol (HTF-C) diet composed of 40% trans-fat, 20% fructose, 2% cholesterol (Research Diets D09100301).
Total RNA was isolated from 400 μL of serum and small RNA sequencing was performed by adapter ligation, cDNA synthesis and size selection of 145-160 base pairs. Sequencing was then performed on an Illumina HiSeq3000.
Heat map miRNAs (˜230 miRNAs) were selected by filtering data for 2-fold or greater change and FDR<0.1 comparing LF to HTF-C diet (not shown). […] Dysregulation of a number of these miRNAs has been previously identified in liver or other fibrotic diseases.

A short description of series [3]: Phase 1 clinical trials in healthy volunteers (PK, safety). The series is classed as in vivo, human. The conditions noted are these: 126 healthy volunteers.
For another series, the target named is T2, PPARγ (Homo sapiens, UniProt P37231).
T2 sequence (P37231 1-505): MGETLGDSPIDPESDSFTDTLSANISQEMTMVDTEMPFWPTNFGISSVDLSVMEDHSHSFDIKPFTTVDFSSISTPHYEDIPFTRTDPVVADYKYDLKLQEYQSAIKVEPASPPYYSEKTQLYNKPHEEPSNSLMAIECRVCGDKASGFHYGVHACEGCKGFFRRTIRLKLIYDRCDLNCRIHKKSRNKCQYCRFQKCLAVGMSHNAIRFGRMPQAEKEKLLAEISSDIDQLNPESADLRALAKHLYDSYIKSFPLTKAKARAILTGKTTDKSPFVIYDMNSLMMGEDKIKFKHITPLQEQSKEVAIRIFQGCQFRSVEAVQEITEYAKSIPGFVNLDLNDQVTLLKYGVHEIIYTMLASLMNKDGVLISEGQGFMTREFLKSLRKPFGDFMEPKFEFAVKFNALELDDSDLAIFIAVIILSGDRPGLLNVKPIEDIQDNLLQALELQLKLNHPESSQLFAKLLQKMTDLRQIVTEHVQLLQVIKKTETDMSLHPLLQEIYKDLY
Nature of the series: Relative binding affinity for PPARγ (FIG. 7).

Series [4] can be described thus: Exposure of parent and metabolite; bioavailability of potassium salt vs free acid. Particulars: in vivo.

For the compound `COc1cccc(C(=O)COc2ccc(CC3SC(=O)NC3=O)cc2)c1` (stereo not drawn) [MSDC-0602], the “binding to the MPC” value on MPC is “maintain, and in some cases improve”. In series [1] (LS-MPC2−/− mice), the “glucose tolerance (GTT)” value is given as “no improvement in glucose tolerance”. The “beneficial effects on markers of liver injury” value in series [1] (LS-MPC2−/− mice, acute treatment) is recorded as “refractory”. For the same compound, the “glucose tolerance (GTT)” value in series [1] (WT mice) is recorded as “improved glucose tolerance”. In series [1] (WT mice, single dose), the “gene expression for hepatic stellate cell activation and fibrotic scar formation” value is recorded as “decreased gene expression”; the “plasma ALT concentrations” value is given as “decreased plasma ALT concentrations”. Also, in series [1] (both WT and LS-MPC2−/− mice, single dose 30 mg/kg), the plasma insulin values entry is “decreased”. The “serum miRNAs altered in a mouse model of NASH” value in series [2] was “largely corrected”. In addition, the “deaths, serious or severe adverse events, discontinuations due to adverse events” value in series [3] is recorded as “abdominal bloating. No deaths, serious adverse events, severe adverse”.

On to `COc1cccc(C(O)COc2ccc(CC3SC(=O)NC3=O)cc2)c1` (stereo not drawn) [primary metabolite of MSDC-0602], for which the “reduction in binding affinity for PPARγ compared to pioglitazone” value on PPARγ is given as “more than fifty-fold”. In addition, the “binding to the MPC” value at MPC was “maintain, and in some cases improve”. Also, the “share of the combined exposure” value in series [4] was “more than 90%”.
